The record followed here is US7186735B2, “Acylated arylcycloalkylamines and their use as pharmaceuticals” (Sanofi-Aventis Deutschland GmbH, priority 2002, dated 2007).

Molecules are shown by their SMILES.

The target of this experiment is eNOS promoter. Put plainly: Activation of eNOS transcription (eNOS promoter-luciferase reporter gene assay). Format: cell-based. The conditions noted are these: human endothelial cell line stably transfected with eNOS promoter-luciferase construct; 18 h incubation; EC50 determined graphically from TIR vs concentration; read-out: eNOS transcription induction ratios EC50. The protocol:
Determination of Activation of eNOS Transcription
Activation of eNOS transcription was determined as described in detail in Li et al., “Activation of protein kinase C alpha and/or epsilon enhances transcription of the human endothelial nitric oxide synthase gene”, Mol. Pharmacol. 53 (1998) 630, the content of which is incorporated herein by reference.
Briefly, a 3.5 kB long fragment 5′ of the starting codon of the eNOS gene was cloned, sequenced and cloned in firefly luciferase expression plasmids to monitor activation of the eNOS promoter by reporter gene activity. A human endothelial cell line stable transfected and expressing this promoter-reporter construct was used for compound testing. Cells were incubated for 18 h with compounds.
All compounds were dissolved in sterile dimethyl sulfoxide (DMSO). A final concentration of 0.5% DMSO in complete medium was allowed. Induction of reporter gene expression in these cells was measured using a standard luciferase assay system (Promega, Cat. No E150) according to the manufacturer's instructions. Luciferase induction in cells incubated with compounds were compared to those incubated with solvent alone. The ratio of both activities (transcription induction ratio, TIR) was plotted as a function of compound concentration. Typically, TIR values started at low concentrations at a ratio of 1, indicating no compound effect, and extended up to a maximum TIR value TIR(max) which indicates the increase of the eNOS transcription. EC50 values of transcription induction ratios as a function of compound concentration were determined graphically.
In general terms: A reporter such as luciferase makes a cellular process visible.
Regarding `Cc1nc(C)c(C(=O)N[C@@H]2C[C@H]2c2ccccc2)o1` (racemic) [Example 1], the EC50 turned out to be 18000 nM.

Take `Cc1nc(C2CC2)sc1C(=O)N[C@@H]1C[C@H]1c1ccccc1` (racemic) [Example 3]: the EC50 came to 300 nM.

`Cc1ccc(C(=O)N[C@@H]2C[C@H]2c2ccccc2)c(C)n1` (racemic) [Example 4]: the EC50 amounted to 330 nM.

Turning to `Cc1nc(N)c(C(=O)N[C@@H]2C[C@H]2c2ccccc2)nc1C` (racemic) [Example 5], the EC50 amounted to 160 nM.

On to `Cc1ccc(C(=O)N[C@@H]2C[C@H]2c2ccccc2)cc1NS(C)(=O)=O` (racemic) [Example 7], for which the EC50 is 1800 nM.

For the molecule `CS(=O)(=O)Nc1cccc(C(=O)N[C@@H]2C[C@H]2c2ccccc2)c1` (racemic) [Example 8], the EC50 stood at 2000 nM.

For `O=C(N[C@@H]1C[C@H]1c1ccccc1)c1ccc(N2CCOCC2)nc1` (racemic) [Example 9], the EC50 is 3500 nM.

Turning to `O=C(N[C@@H]1C[C@H]1c1ccccc1)c1cnc2c(c1)CCCC2` (racemic) [Example 10], the EC50 stood at 5100 nM.

For the molecule `COc1ccc(C(=O)N[C@@H]2C[C@H]2c2ccccc2)cn1` (racemic) [Example 11], the EC50 is 780 nM.

`Cc1ncc(C(=O)N[C@@H]2C[C@H]2c2ccccc2)s1` (racemic) [Example 12]: the EC50 was determined as 10000 nM.

Regarding `O=C(N[C@@H]1C[C@H]1c1ccccc1)c1cccc(N2CCCC2)c1` (racemic) [Example 13], the EC50 stood at 1300 nM.

For the molecule `O=C(N[C@@H]1C[C@H]1c1ccccc1)c1cccc(N2CCCCC2)c1` (racemic) [Example 14], the EC50 came out at 11000 nM.

For the molecule `CN1CCN(c2cccc(C(=O)N[C@@H]3C[C@H]3c3ccccc3)c2)CC1` (racemic) [Example 15], the EC50 was 59000 nM.

As for `O=C(N[C@@H]1C[C@H]1c1ccccc1)c1cccc(N2CCOCC2)c1` (racemic) [Example 16], the EC50 was found to be 32000 nM.

In the case of `Cc1cc(C(=O)N[C@@H]2C[C@H]2c2ccccc2)c(C)n1Cc1cccs1` (racemic) [Example 17], the EC50 is less than 10 nM.

With `Cc1nc2ccc(C(=O)N[C@@H]3C[C@H]3c3ccccc3)cc2[nH]1` (racemic) [Example 18], the EC50 came out at 330 nM.

As for `CC(C)S(=O)(=O)c1csc(C(=O)N[C@@H]2C[C@H]2c2ccccc2)c1Cl` (racemic) [Example 19], the EC50 turned out to be 450 nM.

`Cc1c(C(=O)N[C@@H]2C[C@H]2c2ccccc2)cnn1-c1ccccc1` (racemic) [Example 20]: the EC50 turned out to be 110 nM.

As for `O=C(N[C@@H]1C[C@H]1c1ccccc1)c1cnn(-c2ccccc2)c1C(F)(F)F` (racemic) [Example 21], the EC50 is 240 nM.

Take `Cc1cc(C(=O)N[C@@H]2C[C@H]2c2ccccc2)c(C)n1Cc1ccncc1` (racemic) [Example 22]: the EC50 was 24000 nM.

For the molecule `Cc1nc(C)c(C(=O)N[C@@H]2C[C@H]2c2ccccc2)s1` (racemic) [Example 23], the EC50 is 600 nM.

As for `Nc1ncccc1C(=O)N[C@@H]1C[C@H]1c1ccccc1` (racemic) [Example 24], the EC50 stood at 950 nM.

`Cc1ccc(C(=O)N[C@@H]2C[C@H]2c2ccccc2)cn1` (racemic) [Example 25]: the EC50 turned out to be 1100 nM.

`Cc1ccc(C(=O)N[C@@H]2C[C@H]2c2ccccc2)c(Cl)n1` (racemic) [Example 26]: the EC50 was 290 nM.

`COCc1ccc(C(=O)N[C@@H]2C[C@H]2c2ccccc2)cn1` (racemic) [Example 27]: the EC50 is 4300 nM.

Regarding `Nc1nccnc1C(=O)N[C@@H]1C[C@H]1c1ccccc1` (racemic) [Example 28], the EC50 stood at 430 nM.

Regarding `O=C(N[C@@H]1C[C@H]1c1ccccc1)c1ccc2cc[nH]c2c1` (racemic) [Example 29], the EC50 is 100 nM.

In the case of `O=C(N[C@@H]1C[C@H]1c1ccccc1)c1ccc2[nH]ccc2c1` (racemic) [Example 30], the EC50 is 100 nM.

Take `O=C(NC1CC1c1ccccc1)c1cccc2[nH]ccc12` (racemic) [Example 31]: the EC50 amounted to 470 nM.

Turning to `CN(C)c1cccc(C(=O)NC2CC2c2ccccc2)c1` (racemic) [Example 32], the EC50 was 1800 nM.

Take `Cc1cc(C)c(C(=O)NC2CC2c2ccccc2)c(N)n1` (racemic) [Example 33]: the EC50 is 12000 nM.

As for `O=C(NC1CC1c1ccccc1)c1cccc(Cl)c1Cl` (racemic) [Example 34], the EC50 came out at 1200 nM.

Turning to `O=C(NC1CC1c1ccccc1)c1ccc(F)cc1F` (racemic) [Example 36], the EC50 is 310 nM.

As for `Cc1ccc(C(=O)NC2CC2c2ccccc2)s1` (racemic) [Example 37], the EC50 was found to be 260 nM.

As to `O=C(NC1CC1c1ccccc1)c1ccc(Cl)s1` (racemic) [Example 38], the EC50 worked out at 230 nM.

Turning to `O=C(N[C@@H]1C[C@H]1c1ccccc1)c1ccc(F)cc1` (relative stereo) [Example 39, 4-fluoro-N-(trans-2-phenylcyclopropyl)benzamide], the EC50 turned out to be 190 nM.

`O=C(N[C@@H]1C[C@H]1c1ccccc1)c1ccc(F)cc1` (relative stereo) [Example 40, 4-Fluoro-N-(trans-2-phenylcyclopropyl)benzamide]: the EC50 amounted to 1500 nM.

Consider `O=C(N[C@@H]1C[C@H]1c1ccccc1)c1ccc(F)cc1` (relative stereo) [Example 41, 4-Fluoro-N-(trans-2-phenylcyclopropyl)benzamide], for which the EC50 is 180 nM.
